Among the data in ChEMBL document CHEMBL4251729, “Novel Triterpenone for Treatment of Viral Diseases-HIV Inhibitors” (ACS Med Chem Lett, 2018) are IC50 values, retold here.

Assay [1] concerns Human immunodeficiency virus 1. Put plainly: Antiviral activity against HIV1 92HT599 infected in human MT2 cells assessed as reduction in p24 production in presence of 40% serum by ELISA. It counts as functional, organism-based. To be noted: Human immunodeficiency virus 1, 92HT599, MT2. A general note: ELISA stands for enzyme-linked immunosorbent assay.
In assay [2] the test system is Human immunodeficiency virus 1. Put plainly: Antiviral activity against HIV1 92HT599 infected in human MT2 cells assessed as reduction in p24 production in absence of serum by ELISA. Type of assay: functional, organism-based.
Setting [3] is: Human immunodeficiency virus 1, 92HT599, MT2.

By pIC50 is commonly meant −log10 of the IC50, conventionally taken in molar units.

pIC50: −log10 of the molar value.

Turning to `CC(C)C1=C2[C@H]3CC[C@@H]4[C@@]5(C)CC[C@H](OC(=O)[C@H]6C[C@@H](C(=O)O)C6(C)C)C(C)(C)[C@@H]5CC[C@@]4(C)[C@]3(C)CC[C@@]2(c2ncc(-c3ccc(Cl)cc3)n2CCN(C)C)CC1=O` [listing 1 of 2 here], the pIC50 is under 7.30 in assay [1] and over 8.00 in assay [2].

`CC(C)C1=C2[C@H]3CC[C@@H]4[C@@]5(C)CC[C@H](OC(=O)[C@H]6C[C@@H](C(=O)O)C6(C)C)C(C)(C)[C@@H]5CC[C@@]4(C)[C@]3(C)CC[C@@]2(c2nnc(-c3ccc(Cl)cc3)o2)CC1=O`: the pIC50 in assay [1] and in assay [2] (setting [3]) was over 8.00 in each case.

As for `CC(C)C1=C2[C@H]3CC[C@@H]4[C@@]5(C)CC[C@H](OC(=O)[C@H]6C[C@@H](C(=O)O)C6(C)C)C(C)(C)[C@@H]5CC[C@@]4(C)[C@]3(C)CC[C@@]2(c2ncc(-c3ccc(F)cc3)[nH]2)CC1=O`, the pIC50 in assay [1] was under 7.30; in assay [2] (setting [3]) it was over 8.00.

Consider `CC(C)C1=C2[C@H]3CC[C@@H]4[C@@]5(C)CC[C@H](OC(=O)[C@H]6C[C@@H](C(=O)O)C6(C)C)C(C)(C)[C@@H]5CC[C@@]4(C)[C@]3(C)CC[C@@]2(c2ncc(-c3ccc(Cl)cc3)n2CCN(C)C)CC1=O` [listing 2 of 2 here], for which the pIC50 in assay [2] (setting [3]) was 7.30 to 8.00.

For the molecule `CC(C)C1=C2[C@H]3CC[C@@H]4[C@@]5(C)CC[C@H](OC(=O)[C@H]6C[C@@H](C(=O)O)C6(C)C)C(C)(C)[C@@H]5CC[C@@]4(C)[C@]3(C)CC[C@@]2(c2ncc(-c3ccccc3)[nH]2)CC1=O`, the figures for the pIC50 in assay [1] and in assay [2] (setting [3]) were 7.30 to 8.00 and over 8.00, respectively.

On to `CC(C)C1=C2[C@H]3CC[C@@H]4[C@@]5(C)CC[C@H](OC(=O)[C@H]6C[C@@H](C(=O)O)C6(C)C)C(C)(C)[C@@H]5CC[C@@]4(C)[C@]3(C)CC[C@@]2(c2ncc(-c3ccc(Cl)cc3)[nH]2)CC1=O`, for which the pIC50 is 7.30 to 8.00 in assay [1] and over 8.00 in assay [2] (setting [3]).
